Measured values reported in publication PMC7367873, “Dissecting the sequence determinants for dephosphorylation by the catalytic subunits of phosphatases PP1 and PP2A” (Nature Communications, 2020).

How the values were obtained:
[1] = tested on: GFP-14-3-3β and its binding proteins; assay: GFP-14-3-3β co-IP with LC-MS/MS label-free quantification, untreated versus PP1c-treated; design: species or system human
Protocol: (§1) HeLa Kyoto cells expressing transiently transfected pEGFP(C1)-14-3-3β or pEGFP(C1) control plasmid, were incubated with 20 nM Calyculin A (# 9902 S, Cell Signaling Technology) for 12 min. Cells were washed twice on ice with cold PBS and after addition of 500 µL lysis buffer (100 mM NaCl, 10 mM Tris, 0.1% IGEPAL, 1 mM EDTA, 1 mM EGTA, 20 nM Calyculin A, 1x cOmplete Mini protease inhibitor cocktail (Sigma), 1 mM DTT, 1 mM MnCl2) cells were scraped from plates, lysed by 10 pushes through an injection needle (21 G, BD) and the insoluble fraction was pelleted by centrifugation (10 min, 10^4 rcf, 4 °C). Supernatants were then subjected to incubation with 1 µM recombinant phosphatase or buffer for 1 h at 30 °C. Next, we subjected samples to immunoprecipitation using α-GFP nanobodies covalently coupled to agarose beads (2 h, 4 °C, obtained from the EMBL PEPcore Core Facility). Beads were then washed three times with lysis buffer and samples were eluted in 1x LDS sample buffer (Thermo Fisher Scientific) by heating to 70 °C for 10 min.
(§2) The samples were then reduced with 25 mM dithiothreitol (10 min at 70 °C) and alkylated with 55 mM chloroacetamide (room temperature, 30 min, in the dark). Proteins were run on a precast 4–12% NuPAGE gel (ThermoFisher Scientific) for about 1 cm to concentrate the sample prior to in-gel tryptic digestion, which was performed according to the standard procedures. The peptides obtained were dried to completeness and resuspended in 12 µL of buffer A (0.1% FA), and 5 µL of sample were injected per MS measurement. The experiment was carried out in three independent replicates.
(§3) The samples were analyzed by LC-MS/MS on a Dionex Ultimate 3000 nano-HPLC coupled online to a Fusion Lumos Tribrid mass spectrometer (Thermo Fisher Scientific). Peptides were delivered to a trap column (75 µm × 2 cm, packed in-house with 5 µm C18 resin; Reprosil PUR AQ, Dr. Maisch) and washed using 0.1% FA at a flow rate of 5 µL/min for 10 min. Subsequently, peptides were transferred to an analytical column (75 µm × 45 cm, packed in-house with 3 µm C18 resin; Reprosil Gold) applying a flow rate of 300 nL/min and separated using a 60 min linear gradient from 4% to 32% LC solvent B (0.1% FA, 5% DMSO in ACN) in LC solvent A (0.1% FA in 5% DMSO). The eluate from the analytical column was sprayed via a stainless steel emitter (Thermo Fisher Scientific) at a source voltage of 2.1 kV into the mass spectrometer. The transfer capillary was heated to 275 °C. The Fusion Lumos was operated in positive ionization mode and data-dependent acquisition (DDA), automatically switching between MS1 and MS2 spectrum acquisition. Full scan MS1 spectra were recorded in the Orbitrap from 360 to 1300 m/z at a resolution of 60k (automatic gain control (AGC) target value of 4e5 charges, maximum injection time (maxIT) of 50 ms). Up to 20 peptide precursors were isolated (isolation window, 1.7 m/z; maximum injection time, 25 ms; and AGC value, 1e5), fragmented by high-energy collision-induced dissociation (HCD) using 30% normalized collision energy (NCE), and analyzed at a resolution of 15k in the Orbitrap. Precursor ions that were singly charged, unassigned, or with charge states >6+ were excluded. The dynamic exclusion duration of fragmented precursor ions was 20 s.
(§4) Peptide and protein identification and LFQ were performed using MaxQuant software (version 1.6.1.0)[64] by searching the data against all canonical protein sequences as annotated in the Swissprot reference database (human proteins only, 20193 entries, downloaded 22 March 2016, internally annotated with PFAM domains) using the embedded search engine Andromeda[65]. The MaxQuant search was performed using two variable modifications; oxidation of methionine and N-terminal protein acetylation. Carbamidomethylation on cysteines was specified as a fixed modification. Trypsin (Trypsin/P) was specified as the proteolytic enzyme with up to two allowed missed cleavage sites.

[2] = tested on: GFP-14-3-3β; assay: GFP-14-3-3β co-IP with LC-MS/MS, untreated GFP-14-3-3β versus GFP control (14-3-3 interactome); type: binding, human
Protocol: as §1, §2, §3, §4

[3] = PP1 vs untreated, label-free quantification
[4] = untreated vs GFP, label-free quantification
[5] = GFP-14-3-3β co-IP LC-MS/MS, PP1 vs untreated, student's t-test, label-free quantification, 3 replicates each
[6] = GFP-14-3-3β co-IP LC-MS/MS, untreated vs GFP, student's t-test, label-free quantification, 3 replicates each
[7] = PP1 vs untreated, LFQ intensities, replicates 1-3
[8] = untreated vs GFP, LFQ intensities, replicates 1-3
[9] = pairwise comparison PP1 vs untreated
[10] = pairwise comparison untreated vs GFP
[11] = pairwise comparison PP1 vs untreated, student's t-test, 3 replicates each, LC-MS/MS label-free quantification
[12] = pairwise comparison untreated GFP-14-3-3β vs GFP, student's t-test, 3 replicates each, LC-MS/MS label-free quantification
[13] = PP1 vs untreated, LFQ intensities, 3 replicates each
[14] = untreated vs GFP, LFQ intensities, 3 replicates each

FYN
Difference (log2), PP1 vs untreated [1, 3]: 0.8257 log2 | Difference (log2), untreated vs GFP [2, 4]: -1.633 log2

HNRNPU
Difference (log2), PP1 vs untreated [1, 5]: -0.3998 log2 | Difference (log2), untreated vs GFP [2, 6]: 0.9402 log2

CLTC
Difference (log2), PP1 vs untreated [1, 5]: -0.2648 log2 | Difference (log2), untreated vs GFP [2, 6]: 0.0549 log2

RANBP2
Difference (log2), PP1 vs untreated [1, 7]: -2.029 log2 | Difference (log2), untreated vs GFP [2, 8]: 2.443 log2

CSE1L
Difference (log2), PP1 vs untreated [1, 9]: 0.2293 log2 | Difference (log2), untreated vs GFP [2, 10]: -0.7283 log2

DENND4C
Difference (log2), PP1 vs untreated [1, 11]: -4.253 log2 | Difference (log2), untreated vs GFP [2, 12]: 3.4091 log2

ECM29
Difference (log2), PP1 vs untreated [1, 5]: -0.2746 log2 | Difference (log2), untreated vs GFP [2, 6]: -0.4278 log2

ARHGAP21
Difference (log2), PP1 vs untreated [1, 11]: -2.341 log2 | Difference (log2), untreated vs GFP [2, 12]: 4.914 log2

CAD
Difference (log2), PP1 vs untreated [1, 5]: -0.6324 log2 | Difference (log2), untreated vs GFP [2, 6]: 0.93 log2

ILF2
Difference (log2), PP1 vs untreated [1, 9]: -0.07574 log2 | Difference (log2), untreated vs GFP [2, 10]: 3.657 log2

CLPX
Difference (log2), PP1 vs untreated [1, 3]: 1.1943 log2 | Difference (log2), untreated vs GFP [2, 4]: 0.9407 log2

CLASP1
Difference (log2), PP1 vs untreated [1, 5]: -0.7054 log2 | Difference (log2), untreated vs GFP [2, 6]: 1.4296 log2

HSPA9
Difference (log2), PP1 vs untreated [1, 7]: -1.091 log2 | Difference (log2), untreated vs GFP [2, 8]: -0.4978 log2

TUBB
Difference (log2), PP1 vs untreated [1, 5]: -0.1729 log2 | Difference (log2), untreated vs GFP [2, 6]: -1.012 log2

FBXO22
Difference (log2), PP1 vs untreated [1, 11]: -4.621 log2 | Difference (log2), untreated vs GFP [2, 12]: 0.4281 log2

SEC16A
Difference (log2), PP1 vs untreated [1, 7]: -1.037 log2 | Difference (log2), untreated vs GFP [2, 8]: 2.809 log2

PCNT
Difference (log2), PP1 vs untreated [1, 5]: -0.6422 log2 | Difference (log2), untreated vs GFP [2, 6]: 1.216 log2

LARP4B
Difference (log2), PP1 vs untreated [1, 3]: 0.8043 log2 | Difference (log2), untreated vs GFP [2, 4]: 0.9646 log2

LARS
Difference (log2), PP1 vs untreated [1, 9]: 0.05859 log2 | Difference (log2), untreated vs GFP [2, 10]: -0.7263 log2

CEP170
Difference (log2), PP1 vs untreated [1, 13]: 0.4617 log2 | Difference (log2), untreated vs GFP [2, 14]: 2.101 log2

SMARCA5
Difference (log2), PP1 vs untreated [1, 7]: -1.929 log2 | Difference (log2), untreated vs GFP [2, 8]: 3.229 log2

HDAC2
Difference (log2), PP1 vs untreated [1, 9]: 0.1471 log2 | Difference (log2), untreated vs GFP [2, 10]: 0.5775 log2

PIK3C2B
Difference (log2), PP1 vs untreated [1, 11]: -3.205 log2 | Difference (log2), untreated vs GFP [2, 12]: 5.48 log2

WWTR1
Difference (log2), PP1 vs untreated [1, 11]: -4.48 log2 | Difference (log2), untreated vs GFP [2, 12]: 5.399 log2

RAD50
Difference (log2), PP1 vs untreated [1, 5]: -0.3723 log2 | Difference (log2), untreated vs GFP [2, 6]: 0.4724 log2

DYNC1H1
Difference (log2), PP1 vs untreated [1, 3]: 0.7684 log2 | Difference (log2), untreated vs GFP [2, 4]: 3.605 log2

GNG12
Difference (log2), PP1 vs untreated [1, 7]: -1.974 log2 | Difference (log2), untreated vs GFP [2, 8]: -0.9148 log2

NUP188
Difference (log2), PP1 vs untreated [1, 5]: -0.6223 log2 | Difference (log2), untreated vs GFP [2, 6]: 1.172 log2

SFN
Difference (log2), PP1 vs untreated [1, 11]: -4.908 log2 | Difference ([2]; UntrtedvsGFP, Perseus raw output, LFQ intensity difference): 10.1517 | Difference (log2), untreated vs GFP [2, 12]: 10.1517 log2

PSIP1
Difference (log2), PP1 vs untreated [1, 5]: -0.2351 log2 | Difference (log2), untreated vs GFP [2, 6]: 1.521 log2

TFAM
Difference (log2), PP1 vs untreated [1, 13]: 0.5786 log2 | Difference (log2), untreated vs GFP [2, 14]: -2.855 log2

TNKS1BP1
Difference (log2), PP1 vs untreated [1, 7]: -1.162 log2 | Difference (log2), untreated vs GFP [2, 8]: 1.91 log2

RPA3
Difference (log2), PP1 vs untreated [1, 7]: -1.739 log2 | Difference (log2), untreated vs GFP [2, 8]: -0.7925 log2

STOM
Difference (log2), PP1 vs untreated [1, 9]: 0.02924 log2 | Difference (log2), untreated vs GFP [2, 10]: -0.5691 log2
